In ChEMBL document CHEMBL3525953, “In vitro cytochrome P450-mediated metabolism of exemestane” (Drug Metab Dispos, 2011):

How the values were obtained:
Format in all cases: ADME
Cytochrome P450 1A1 = target: T1, Cytochrome P450 1A1 (Homo sapiens, UniProt P04798); assay: Drug metabolism assessed as human recombinant CYP1A1-mediated 17-hydroexemestane formation rate per pmol of enzyme at 10 uM after 10 mins
T1 sequence (P04798 whole entry): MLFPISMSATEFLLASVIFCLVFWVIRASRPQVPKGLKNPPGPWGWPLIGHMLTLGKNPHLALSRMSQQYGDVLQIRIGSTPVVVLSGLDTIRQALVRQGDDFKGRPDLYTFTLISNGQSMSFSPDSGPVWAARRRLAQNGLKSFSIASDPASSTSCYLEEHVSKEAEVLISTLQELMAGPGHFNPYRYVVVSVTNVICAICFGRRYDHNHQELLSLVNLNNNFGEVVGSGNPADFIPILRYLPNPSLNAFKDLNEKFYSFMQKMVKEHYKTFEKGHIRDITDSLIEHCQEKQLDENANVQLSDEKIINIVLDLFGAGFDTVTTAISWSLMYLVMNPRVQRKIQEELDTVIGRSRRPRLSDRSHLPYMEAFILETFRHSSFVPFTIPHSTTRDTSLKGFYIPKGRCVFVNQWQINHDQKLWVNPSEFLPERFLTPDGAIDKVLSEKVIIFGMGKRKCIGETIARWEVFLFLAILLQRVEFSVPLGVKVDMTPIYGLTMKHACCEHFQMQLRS

Cytochrome P450 3A5 = Cytochrome P450 3A5 (Homo sapiens, UniProt P20815); assay: Drug metabolism assessed as human recombinant CYP3A5-mediated 17-hydroexemestane formation rate per pmol of enzyme at 10 uM after 10 mins
Cytochrome P450 2C19 = Cytochrome P450 2C19 (Homo sapiens, UniProt P33261); assay: Drug metabolism assessed as human recombinant CYP2C19-mediated 17-hydroexemestane formation rate per pmol of enzyme at 10 uM after 10 mins
Liver microsome = assay: Drug metabolism in human liver microsomes assessed as retention time treated with 300 uM of exemestane after 10 mins by HPLC with UV analysis
Cytochrome P450 1A2 = target: T2, Cytochrome P450 1A2 (Homo sapiens, UniProt P05177); assay: Drug metabolism assessed as human recombinant CYP1A2-mediated 17-hydroexemestane formation at 10 uM after 10 mins by Michaelis-Menten saturation curve analysis; conditions: recombinant enzyme
T2 sequence (P05177 whole entry): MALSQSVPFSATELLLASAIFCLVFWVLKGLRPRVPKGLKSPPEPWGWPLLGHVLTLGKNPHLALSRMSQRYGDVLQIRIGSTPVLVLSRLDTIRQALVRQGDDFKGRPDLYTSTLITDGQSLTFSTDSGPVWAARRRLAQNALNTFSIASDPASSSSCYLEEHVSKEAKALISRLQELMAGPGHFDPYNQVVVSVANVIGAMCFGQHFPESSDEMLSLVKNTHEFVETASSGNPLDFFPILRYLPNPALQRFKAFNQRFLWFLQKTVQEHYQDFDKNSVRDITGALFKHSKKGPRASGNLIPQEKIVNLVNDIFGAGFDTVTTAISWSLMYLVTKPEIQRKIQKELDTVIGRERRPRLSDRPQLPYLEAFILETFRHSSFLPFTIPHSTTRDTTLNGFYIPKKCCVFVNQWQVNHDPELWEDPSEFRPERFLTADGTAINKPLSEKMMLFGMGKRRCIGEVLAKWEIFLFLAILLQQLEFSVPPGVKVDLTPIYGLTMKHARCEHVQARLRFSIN

Sequence of Cytochrome P450 3A5 (P20815 whole entry): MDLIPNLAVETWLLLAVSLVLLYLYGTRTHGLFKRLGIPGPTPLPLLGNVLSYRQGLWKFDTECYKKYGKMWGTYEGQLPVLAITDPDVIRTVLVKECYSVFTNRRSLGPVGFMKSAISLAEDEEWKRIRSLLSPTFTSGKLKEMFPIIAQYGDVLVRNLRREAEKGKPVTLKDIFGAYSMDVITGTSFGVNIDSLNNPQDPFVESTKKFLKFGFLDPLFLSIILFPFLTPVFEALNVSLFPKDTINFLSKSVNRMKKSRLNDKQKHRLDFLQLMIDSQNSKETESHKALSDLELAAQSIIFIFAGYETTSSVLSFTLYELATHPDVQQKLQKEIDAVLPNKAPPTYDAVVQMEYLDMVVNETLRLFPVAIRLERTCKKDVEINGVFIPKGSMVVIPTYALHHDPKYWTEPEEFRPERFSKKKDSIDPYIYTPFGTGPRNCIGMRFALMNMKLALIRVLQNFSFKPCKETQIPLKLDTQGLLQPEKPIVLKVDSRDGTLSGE
Sequence of Cytochrome P450 2C19 (P33261 whole entry): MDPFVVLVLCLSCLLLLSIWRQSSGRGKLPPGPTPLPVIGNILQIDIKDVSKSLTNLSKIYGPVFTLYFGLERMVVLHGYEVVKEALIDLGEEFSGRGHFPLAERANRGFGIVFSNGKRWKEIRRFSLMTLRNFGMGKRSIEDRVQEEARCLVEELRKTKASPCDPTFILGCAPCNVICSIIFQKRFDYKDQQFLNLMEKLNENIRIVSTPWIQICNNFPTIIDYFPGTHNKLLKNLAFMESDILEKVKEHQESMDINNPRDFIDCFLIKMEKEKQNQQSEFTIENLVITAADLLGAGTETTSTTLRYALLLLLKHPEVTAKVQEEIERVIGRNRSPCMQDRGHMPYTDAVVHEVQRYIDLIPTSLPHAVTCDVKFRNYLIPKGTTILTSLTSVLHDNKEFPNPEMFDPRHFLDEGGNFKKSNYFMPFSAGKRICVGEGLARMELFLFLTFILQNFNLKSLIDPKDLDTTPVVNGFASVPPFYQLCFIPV

For C=C1C[C@@H]2[C@H](CC[C@]3(C)C(O)CC[C@@H]23)[C@@]2(C)C=CC(=O)C=C12 (stereo not given in full), the Drug metabolism (Cytochrome P450 1A1) was 1.09 pmol/min, the Drug metabolism (Cytochrome P450 3A5) was 0.21 pmol/min and the Drug metabolism (Cytochrome P450 2C19) was “metabolite_not_detected”. The Retention_time (Liver microsome) was 13.1 min and the Drug metabolism (Cytochrome P450 1A2) was “metabolite_detected”.
